According to US11590129B2, “Combination therapy with an antitumor alkaloid” (PHARMA MAR, S.A., priority 2010, dated 2023):
Like-named read-outs stand apart in the source and are kept apart here. Starred links: 1 amine or outer side, 2 acyl side, 3 side chain; linkers in the order of their positions; H or OH if unused. Positions of bridges follow the written chain, without caps; N, C: chain ends. Non-standard residues stand in square brackets, D forms with d. Residues, ends and D or L forms follow the SMILES beside them. Chains are numbered I, II in the order given. Actinocin(9to1) = Cc1c2oc3c(C)ccc(C(=O)[*:1])c3nc-2c(C(=O)[*:2])c(N)c1=O; NMeV = CN[C@H](C(=O)O)C(C)C; Sar = CNCC(=O)O

Key:
[1] = tested on: PANC-1 human pancreatic carcinoma cell line; assay: cells
Experimental: (§1) a. […] Briefly, cells were harvested and seeded in 96 well microtiter plates at a density of 5,000 cells in 150 μL of culture medium and incubated for 24 hours in drug-free medium before treatment with vehicle alone or test compounds for 72 h.
(§2) The cytotoxic effect was measured by the MTT reduction assay, in which 3-(4,5-Dimethylthiazol-2-yl)-2,5-diphenyltetrazolium bromide, a tetrazole, which is reduced to purple formazan in the mitochondria of living cells, was used. MTT (50 μL of 1 mg/mL stock solution) was added to the wells and incubated for 8 hours at 37° C. until formazan crystals were formed. After gently removing the culture medium, DMSO was added to dissolve the insoluble purple formazan product into a colored solution. […] Results were expressed as percentage of control cell growth.
(§3) b. In a second set of assays, A549 human tumor cells were incubated with PM01183 in combination with each of the agents mentioned above.
(§4) As a visual aid, response values were plotted on a scatter plot with dose ratios given on the x-axis and % response values on the y-axis. […] In cases where response values at the two endpoints were approximately equivalent, points lying above or below this predicted line of additivity could be interpreted as representing antagonistic or synergistic drug interaction, respectively.
(§5) Additional serial dilutions were prepared in serum-free culture medium to achieve a final 4× concentration. Aliquots of 50 μL of each diluted compound were added per well.
PANC-1 was the human pancreatic carcinoma cell line selected for this assay.

[2] = tested on: PC-3 human prostate cancer cell line; assay: cells
Experimental: as §1, §2, §3, §4, §5
PC-3 was the human prostate adenocarcinome cell line selected for this assay.

[3] = tested on: MDA-MB-231 human breast adenocarcinoma cell line; assay: cells
Experimental: as §1, §2, §3, §4, §5

[4] = tested on: RXF-393 human kidney carcinoma cell line; assay: cells
Experimental: as §1, §2, §3, §4, §5

[5] = tested on: HGC-27 human gastric carcinoma cell line; assay: cells
Experimental: as §1, §2, §3, §4, §5
HGC-27 was the human gastric carcinoma cell line selected for this assay.

[6] = tested on: A549 human lung carcinoma cell line; assay: MTT cytotoxicity assay in A549 cells: IC50 of single agents and combinations with PM01183; format: cell-based
Experimental: as §5
A549 was the human lung carcinoma cell line selected for this assay.
as §1, §2, §3, §4

[7] = tested on: IGROV-1 human ovarian adenocarcinoma cell line; assay: cells
Experimental: as §1, §2, §3, §4, §5
IGROV-1 was the human ovarian adenocarcinoma cell line selected for this assay.

[8] = tested on: A673 human rhabdomyosarcoma cell line; assay: cells
Experimental: as §1, §2, §3, §4, §5
A673 was the human rhabdomyosarcoma cell line selected for this assay.

[9] = tested on: HT-29 human colon adenocarcinoma cell line; assay: cells
Experimental: as §1, §2, §3, §4, §5
HT-29 was the human colon adenocarcinoma cell line selected for this assay.

[10] = tested on: HepG2 human hepatocellular liver carcinoma cell line; assay: MTT cytotoxicity assay in HepG2 cells: IC50 of single agents and combinations with PM01183; format: cell-based
Experimental: as §1, §2, §3, §4, §5
HepG2 was the human hepatocellular liver carcinoma cell line selected for this assay.

[11] = tested on: U87-MG human glioblastoma cell line; assay: cells
Experimental: as §1, §2, §3, §4, §5
U87-MG was the human glioblastoma cell line selected for this assay.

[12] = tested on: SK-MEL-2 human melanoma cell line; assay: cells
Experimental: as §1, §2, §3, §4, §5
SK-MEL-2 was the human melanoma cell line selected for this assay.

HT1080 tumors = assay: Human fibrosarcoma (HT1080) orthotopically implanted in athymic nude mice, total diameter (tumor+leg) % T/C; format: in vivo
Experimental: Female athymic nude mice (Harlan Laboratories Models, S.L. (Barcelona, Spain) were utilized for all experiments. Animals were housed in individually ventilated cages, up to ten per cage in a 12-hour light-dark cycle at 21-23° C. and 40-60% humidity. The mice were allowed free access to irradiated standard rodent diet and sterilized water. Animals were acclimated for at least 5 days prior to tumor implantation with a tumor cell suspension.
HT1080 cells were grown at 37° C. with 5% CO2 in Minimum Essential Medium Eagle (MEME). Each animal was orthotopically implanted into gastroecnemius muscle by an intramuscular injection using 26G needle and a 1 cc syringe, with 5×10^6 HT1080 cells, from in vitro passage 9, suspended in serum free medium, without antibiotics.
Total diameter (tumor+leg) measurements were determined by using digital caliper (Fowler Sylvac, S235PAT). This total diameter and animal body weights were measured 2-3 times per week starting from the first day of treatment.
Treatment tolerability was assessed by monitoring body weight evolution, clinical signs as well as evidences of local damage in the injection site.
PM01183 was provided in the form of vials of lyophilized PM01183 cake which was reconstituted with water for infusion to a concentration of 0.2 mg/mL. The PM01183 stock solution was further diluted in 5% glucose solution for injection to the dosing formulation concentrations. Dacarbazine was provided in the form of a solution prepared by diluting the product with 5% glucose solution for injection to the target final concentration.
Dose level groups were administered either as single agents or in combination.
Comparison of the median total diameter (tumor+leg) in the treatment groups (T) to the median total diameter (tumor+leg) in the control group (T/C×100%) was used for evaluation of the antitumor efficacy.

[13] = Homo sapiens, HepG2, 72 hours drug exposure, MTT, read-out: IC50

Cc1c2oc3c(C)ccc(C(=O)N[C@@H]4C(=O)N[C@H](C(C)C)C(=O)N5CCC[C@H]5C(=O)N(C)CC(=O)N(C)[C@@H](C(C)C)C(=O)O[C@@H]4C)c3nc-2c(C(=O)N[C@@H]2C(=O)N[C@H](C(C)C)C(=O)N3CCC[C@H]3C(=O)N(C)CC(=O)N(C)[C@@H](C(C)C)C(=O)O[C@@H]2C)c(N)c1=O [Actinomycin D, actinomycin D] (I: T[dV]P[Sar][NMeV] / II: T[dV]P[Sar][NMeV]; ester I:1-I:C, II:1-II:C; linker I:N-II:N via Actinocin(9to1))
IC50 ([1]; PANC-1, 72 hours drug exposure, MTT): 0.022 µM
IC50 ([2]; PC-3, 72 hours drug exposure, MTT): 0.01 µM
IC50 ([3]; MDA-MB-231, 72 hours drug exposure, MTT): 0.000454 µM
IC50 ([4]; RXF-393, 72 hours drug exposure, MTT): 0.000709 µM
IC50 ([5]; HGC-27, 72 hours drug exposure, MTT): 0.00374 µM
IC50 ([6]; A549, 72 hours drug exposure, MTT, read-out: IC50): 0.0047 µM
IC50 ([7]; IGROV-1, 72 hours drug exposure, MTT): 0.00329 µM
IC50 ([8]; A673, 72 hours drug exposure, MTT): 0.000956 µM
IC50 ([9]; HT-29, 72 hours drug exposure, MTT): 0.00327 µM

CC(C)C[C@H](NC(=O)[C@H](Cc1ccccc1)NC(=O)c1cnccn1)B(O)O [Bortezomib, bortezomib]
IC50 ([1]; Homo sapiens, PANC-1, 72 h): 0.416 µM
IC50 ([2]; Homo sapiens, PC-3, 72 h): 0.8 µM
IC50 ([5]; Homo sapiens, HGC-27, 72 h): 0.0056 µM
IC50 ([6]; Homo sapiens, A549, 72 h): 0.0031 µM
IC50 ([10]; Homo sapiens, HepG2, 72 h): 0.39 µM
IC50 ([11]; Homo sapiens, U-87 MG, 72 h): 0.4 µM
IC50 ([9]; Homo sapiens, HT-29, 72 h): 0.00615 µM

CN(C)/N=N/c1[nH]cnc1C(N)=O [Dacarbazine, dacarbazine]
IC50 ([3]; Homo sapiens, MDA-MB-231, 72 h): 19.2 µM
IC50 ([4]; Homo sapiens, RXF 393, 72 h): 794 µM
IC50 ([5]; Homo sapiens, HGC-27, 72 h): 346 µM
IC50 ([6]; Homo sapiens, A549, 72 h): 600 µM
IC50 ([11]; Homo sapiens, U-87 MG, 72 h): 700 µM
IC50 ([12]; Homo sapiens, SK-MEL-2, 72 h): 630 µM
IC50 ([7]; Homo sapiens, IGROV-1, 72 h): 398 µM
IC50 ([8]; Homo sapiens, A673, 72 h): 300 µM
% T/C on day 0 (HT1080 tumors; Dacarbazine 37.5 mg/kg): 100%
% T/C on day 2 (HT1080 tumors; Dacarbazine 37.5 mg/kg): 51.8%
% T/C on day 4 (HT1080 tumors; Dacarbazine 37.5 mg/kg): 54.3%
% T/C on day 7 (HT1080 tumors; Dacarbazine 37.5 mg/kg): 65.4%
% T/C on day 9 (HT1080 tumors; Dacarbazine 37.5 mg/kg): 61.3%
% T/C on day 11 (HT1080 tumors; Dacarbazine 37.5 mg/kg): 47.9%
% T/C on day 14 (HT1080 tumors; Dacarbazine 37.5 mg/kg): 55.1%
% T/C on day 16 (HT1080 tumors; Dacarbazine 37.5 mg/kg): 62.1%
% T/C on day 0 (HT1080 tumors; Dacarbazine 112.5 mg/kg): 100%
% T/C on day 2 (HT1080 tumors; Dacarbazine 112.5 mg/kg): 48.1%
% T/C on day 4 (HT1080 tumors; Dacarbazine 112.5 mg/kg): 34.3%
% T/C on day 7 (HT1080 tumors; Dacarbazine 112.5 mg/kg): 53.8%
% T/C on day 9 (HT1080 tumors; Dacarbazine 112.5 mg/kg): 48.0%
% T/C on day 11 (HT1080 tumors; Dacarbazine 112.5 mg/kg): 37.5%
% T/C on day 14 (HT1080 tumors; Dacarbazine 112.5 mg/kg): 43.2%
% T/C on day 16 (HT1080 tumors; Dacarbazine 112.5 mg/kg): 53.2%
% T/C on day 0 (HT1080 tumors; Dacarbazine 150.0 mg/kg): 100%
% T/C on day 2 (HT1080 tumors; Dacarbazine 150.0 mg/kg): 40.7%
% T/C on day 4 (HT1080 tumors; Dacarbazine 150.0 mg/kg): 28.6%
% T/C on day 7 (HT1080 tumors; Dacarbazine 150.0 mg/kg): 30.8%
% T/C on day 9 (HT1080 tumors; Dacarbazine 150.0 mg/kg): 44.0%
% T/C on day 11 (HT1080 tumors; Dacarbazine 150.0 mg/kg): 37.5%
% T/C on day 14 (HT1080 tumors; Dacarbazine 150.0 mg/kg): 44.9%
% T/C on day 16 (HT1080 tumors; Dacarbazine 150.0 mg/kg): 57.3%
IC50 ([9]; Homo sapiens, HT-29, 72 h): 24.7 µM

CC(=O)O[C@@]12CO[C@@H]1C[C@H](O)[C@@]1(C)C(=O)[C@H](O)C3=C(C)[C@@H](OC(=O)[C@H](O)[C@@H](NC(=O)OC(C)(C)C)c4ccccc4)C[C@@](O)([C@@H](OC(=O)c4ccccc4)[C@H]21)C3(C)C [Docetaxel, docetaxel]
IC50 ([2]; Homo sapiens, PC-3, 72 h): 0.0186 µM
IC50 ([3]; Homo sapiens, MDA-MB-231, 72 h): 0.0025 µM
IC50 ([4]; Homo sapiens, RXF 393, 72 h): 0.000594 µM
IC50 ([6]; Homo sapiens, A549, 72 hours drug exposure, MTT, read-out: IC50): 0.003 µM
IC50 [10, 13]: 0.5 µM
IC50 ([11]; Homo sapiens, U-87 MG, 72 h): 0.1 µM
IC50 ([7]; Homo sapiens, IGROV-1, 72 h): 0.0501 µM
IC50 ([8]; Homo sapiens, A673, 72 h): 0.00065 µM
IC50 ([9]; Homo sapiens, HT-29, 72 h): 0.00032 µM

C#Cc1cccc(Nc2ncnc3cc(OCCOC)c(OCCOC)cc23)c1 [Erlotinib, erlotinib]
IC50 ([1]; Homo sapiens, PANC-1, 72 h): 0.416 µM
IC50 ([2]; Homo sapiens, PC-3, 72 h): 233 µM
IC50 ([3]; Homo sapiens, MDA-MB-231, 72 h): 100 µM
IC50 ([4]; Homo sapiens, RXF 393, 72 h): 4.8 µM
IC50 ([5]; Homo sapiens, HGC-27, 72 h): 7.5 µM
IC50 ([6]; Homo sapiens, A549, 72 h): 10 µM
IC50 [10, 13]: 8.6 µM
IC50 ([11]; Homo sapiens, U-87 MG, 72 h): 149 µM
IC50 ([7]; Homo sapiens, IGROV-1, 72 h): 7.91 µM
IC50 ([8]; Homo sapiens, A673, 72 h): 50 µM
IC50 ([9]; Homo sapiens, HT-29, 72 h): 25.6 µM

CO[C@@]12[C@H](COC(N)=O)C3=C(C(=O)C(C)=C(N)C3=O)N1C[C@@H]1N[C@@H]12 [Mitomycin C, mitomycin C]
IC50 [2]: 10 µM
IC50 [3]: 2 µM
IC50 [4]: 9 µM
IC50 ([6]; read-out: IC50): 249 µM
IC50 [12]: 0.9 µM
IC50 [7]: 3 µM
IC50 [8]: 2.99 µM
IC50 [9]: 2 µM

O=C1[O][Pt]2([NH][C@@H]3CCCC[C@H]3[NH]2)[O]C1=O [Oxaliplatin, oxaliplatin]
IC50 [1]: 184 µM
IC50 [2]: 171 µM
IC50 [3]: 108 µM
IC50 [5]: 106 µM
IC50 ([6]; read-out: IC50): 900 µM
IC50 ([10]; read-out: IC50): 28 µM
IC50 [11]: 190 µM
IC50 [7]: 8.5 µM
IC50 [8]: 78 µM
IC50 [9]: 103 µM
